Where two headings read alike, the source gives them in different places.

In general, IC50 refers to the concentration that inhibits the measured activity by half.

One assay has as its target T1, PKMYT1 (Homo sapiens, UniProt Q99640).
T1 construct: PKMYT1 (93 kD, full length, N-terminal GST tag from Signal Chem); GST (N); purchased Signal Chem
T1 sequence (Q99640 1-499): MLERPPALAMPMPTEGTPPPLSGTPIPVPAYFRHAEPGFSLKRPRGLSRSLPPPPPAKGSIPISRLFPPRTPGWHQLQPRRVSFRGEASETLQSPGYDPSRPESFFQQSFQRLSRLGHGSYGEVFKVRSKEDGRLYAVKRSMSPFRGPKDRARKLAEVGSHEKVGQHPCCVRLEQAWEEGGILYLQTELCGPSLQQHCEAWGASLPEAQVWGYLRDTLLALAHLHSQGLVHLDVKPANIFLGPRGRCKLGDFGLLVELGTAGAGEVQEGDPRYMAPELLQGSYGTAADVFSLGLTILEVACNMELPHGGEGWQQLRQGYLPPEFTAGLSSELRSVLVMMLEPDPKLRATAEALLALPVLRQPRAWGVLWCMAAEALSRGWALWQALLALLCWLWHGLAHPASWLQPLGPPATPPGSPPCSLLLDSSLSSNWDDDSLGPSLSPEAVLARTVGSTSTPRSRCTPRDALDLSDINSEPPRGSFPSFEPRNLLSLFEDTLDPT
Put plainly: ADP-Glo PKMYT1 ATP-depletion assay. The note with it: 50 nM PKMYT1, 13.3 nM CDK1, read-out: Biochemical IC50. The method, boiled down:
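Full-length N-terminal GST-tagged PKMYT1 (50 nM) with GST-CDK1 (13.3 nM) as substrate and 88 µM ATP, in Hepes buffer with MgCl2, MnCl2, DTT and BSA; DMSO <1%. Incubated 120 min at RT. ADP formed was quantified by ADP-Glo luminescence and used to derive biochemical IC50.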

The subject of assay [1] is phosphorylation of CDK1 at Thr14 in HCC1806 cells. Put plainly: Cell lysate AlphaLISA assay measuring inhibition of phosphorylation of CDK1 Thr14. It is filed as cell-based. The note with it: read-out: Cellular IC50. The method, boiled down:
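HCC1806 cells seeded overnight, then treated 4 h at 37 °C, 5% CO2 with compounds in DMSO; washed and lysed, lysates frozen overnight at −80 °C. CDK1 Thr14 phosphorylation read by AlphaLISA SureFire Ultra; data normalized to DMSO (0% inhibition) and 3 μM reference compound to give IC50.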

Consider `Cc1ccc(C#N)cc1-c1c(N)c(C(N)=O)nc2cccnc12` [Compound 254], for which the 50% inhibitory concentration (IC50) on PKMYT1 is at least 5000 nM; in assay [1] (Homo sapiens, HCC1806, 4 h), at least 5000 nM.
On to `NC(=O)c1cc2nccnc2c(-c2cncc(O)c2)c1N` [Compound 145], for which the IC50 was 50 to 500 nM on PKMYT1 and at least 5000 nM in assay [1] (Homo sapiens, HCC1806, 4 h).
`Cc1ccc2c(-c3cccc(O)c3C)c(N)c(C(N)=O)nc2c1` (single isomer, unassigned) [Compound 49, (M)-3-Amino-4-(3-hydroxy-2-methylphenyl)-7-methylquinoline-2-carboxamide]: the IC50 is 500 to 1000 nM on PKMYT1 and 1000 to 5000 nM in assay [1] (4 hours).
`Cc1c(O)cccc1-c1c(N)c(C(N)=O)nc2cccc(F)c12` (single isomer, unassigned) [Compound 58, (M)-3-amino-5-fluoro-4-(3-hydroxy-2-methylphenyl)quinoline-2-carboxamide]: the IC50 at PKMYT1 was 1000 to 5000 nM; in assay [1] (4 hours) it was at least 5000 nM.
In the case of `Cc1ccc(O)c(C)c1-c1c(N)c(C(N)=O)nc2ccc(C(F)(F)F)cc12` (single isomer, unassigned) [Compound 40, (M)-3-Amino-4-(3-hydroxy-2,6-dimethylphenyl)-6-(trifluoromethyl)quinoline-2-carboxamide], the IC50 was 500 to 1000 nM on PKMYT1 and 1000 to 5000 nM in assay [1] (4 hours).
The like results for `NC(=O)c1nc2cccnc2c(-c2cccc3[nH]nc(F)c23)c1N` (atropisomer, axis not shown) [Compound 304] were, in that order, at least 5000 nM and at least 5000 nM.
`Cc1n[nH]c2cccc(-c3cc(C(N)=O)cc4nccnc34)c12` [Compound 72, 8-(3-Methyl-1H-indazol-4-yl)quinoxaline-6-carboxamide]: the half-inhibitory concentration (IC50) at PKMYT1 was at least 5000 nM; in assay [1] (Homo sapiens, HCC1806, 4 h) it was at least 5000 nM.
Turning to `Cc1c(O)cccc1-c1c(N)c(C(N)=O)cc2ncccc12` [Compound 67, 6-Amino-5-(3-hydroxy-2-methylphenyl)quinoline-7-carboxamide], the IC50 at PKMYT1 is 50 to 500 nM; in assay [1] (4 hours), 1000 to 5000 nM.
The like results for `Cc1ccc(O)c(C)c1-c1c(N)c(C(N)=O)cc2nc(C(F)(F)F)cnc12` (single isomer, unassigned) [Compound 112, (P)-7-Amino-8-(3-hydroxy-2,6-dimethylphenyl)-3-(trifluoromethyl)quinoxaline-6-carboxamide] were, in that order, under 50 nM and 50 to 500 nM.
Take `Cc1c(-c2c(N)c(C(N)=O)cc3nccnc23)ccc(F)c1O` [Compound 227]: the IC50 on PKMYT1 is under 50 nM; in assay [1] (Homo sapiens, HCC1806, 4 h), 50 to 500 nM.
With `NC(=O)c1cc2nccnc2c(-c2cccc(O)c2Cl)c1N` (single isomer, unassigned) [Compound 105, (P)-7-Amino-8-(2-chloro-3-hydroxyphenyl)quinoxaline-6-carboxamide], the IC50 on PKMYT1 was under 50 nM; in assay [1] (4 hours), 50 to 500 nM.
Consider `COc1cncc(C2=c3ncccc3=NC(C(N)=O)C2N)c1C` (centres unmarked) [Compound 186], for which the half-maximal inhibitory concentration (IC50) on PKMYT1 lay in the range of 50 to 500 nM; in assay [1] (Homo sapiens, HCC1806, 4 h), 500 to 1000 nM.
For the molecule `COc1ccc2nc(C(N)=O)c(N)c(-c3cccc(O)c3C)c2n1` [Compound 157], the 50% inhibitory concentration (IC50) on PKMYT1 was under 50 nM; in assay [1] (4 hours), 50 to 500 nM.
Turning to `COc1cnc(F)c(-c2c(N)c(C(N)=O)nc3cccnc23)c1` [Compound 229], the half-maximal inhibitory concentration (IC50) was 1000 to 5000 nM on PKMYT1 and at least 5000 nM in assay [1] (Homo sapiens, HCC1806, 4 h).
In the case of `Cc1c(Cl)cncc1C1=c2ncccc2=NC(C(N)=O)C1N` (centres unmarked) [Compound 239], the IC50 (at PKMYT1; in assay [1] (4 hours)) was at least 5000 nM each time.
`Cc1cnc2cc(C(N)=O)c(N)c(-c3cccc(O)c3C)c2n1` (atropisomer, axis not shown) [Compound 168]: the IC50 at PKMYT1 was under 50 nM; in assay [1] (4 hours) it was 50 to 500 nM.
Consider `Cc1c(O)cccc1-c1c(N)c(C(N)=O)nc2cccc(C#N)c12` [Compound 129, 3-Amino-5-cyano-4-(3-hydroxy-2-methylphenyl)quinoline-2-carboxamide], for which the half-maximal inhibitory concentration (IC50) at PKMYT1 is under 50 nM; in assay [1] (Homo sapiens, HCC1806, 4 h), under 50 nM.
Take `COc1ccnc2c(-c3cccc(O)c3C)c(N)c(C(N)=O)cc12` (atropisomer, axis not shown) [Compound 327]: the IC50 (at PKMYT1; in assay [1] (4 hours)) was under 50 nM throughout.
In the case of `NC(=O)c1cc2nccnc2c(-c2ccc3ocnc3c2)c1N` [Compound 178], the concentration for half-maximal inhibition (IC50) on PKMYT1 was at least 5000 nM; in assay [1] (Homo sapiens, HCC1806, 4 h), at least 5000 nM.
In the case of `NC(=O)c1nc2cccnc2c(-c2cnn3ccccc23)c1N` [Compound 323], the IC50 at PKMYT1 is 1000 to 5000 nM; in assay [1] (Homo sapiens, HCC1806, 4 h), at least 5000 nM.
Turning to `NC(=O)c1cc2nccnc2c(-c2c(Cl)ccc3[nH]ncc23)c1N` [Compound 142], the figures for the concentration for half-maximal inhibition (IC50) (on PKMYT1; in assay [1] (4 hours)) were 50 to 500 nM and 1000 to 5000 nM, respectively.
Take `Cc1cnn(C)c1-c1c(N)c(C(N)=O)nc2cccnc12` [Compound 210]: the IC50 was at least 5000 nM on PKMYT1 and at least 5000 nM in assay [1] (Homo sapiens, HCC1806, 4 h).
Regarding `NC(=O)c1nc2cccnc2c(-c2cccc3[nH]nc(F)c23)c1N` [Compound 306], the concentration for half-maximal inhibition (IC50) is 50 to 500 nM at PKMYT1 and at least 5000 nM in assay [1] (4 hours).
On to `Cc1ccc(O)c(C)c1-c1c(N)c(C(N)=O)nc2c(F)cccc12` [Compound 25], for which the IC50 on PKMYT1 lay in the range of 50 to 500 nM; in assay [1] (Homo sapiens, HCC1806, 4 h), 1000 to 5000 nM.
The like results for `CCNc1cnc2c(-c3c(C)ccc(O)c3C)c(N)c(C(N)=O)cc2n1` [Compound 326] were, in that order, 50 to 500 nM and 1000 to 5000 nM.
As to `Cc1c(-c2c(N)c(C(N)=O)cc3nccnc23)ccc2[nH]cnc12` [Compound 252], the IC50 is at least 5000 nM at PKMYT1 and at least 5000 nM in assay [1] (Homo sapiens, HCC1806, 4 h).
On to `Cc1ccc(O)c(C)c1-c1c(N)c(C(N)=O)cc2nc(C(F)(F)F)cnc12` (single isomer, unassigned) [Compound 111, (M)-7-Amino-8-(3-hydroxy-2,6-dimethylphenyl)-3-(trifluoromethyl)quinoxaline-6-carboxamide], for which the results for the 50% inhibitory concentration (IC50) (on PKMYT1; in assay [1] (4 hours)) were 1000 to 5000 nM and at least 5000 nM, respectively.
In the case of `NC(=O)c1nc2c(c(-c3cc(O)cnc3F)c1N)NCCC2` (atropisomer, axis not shown) [Compound 294], the IC50 at PKMYT1 is 1000 to 5000 nM; in assay [1] (Homo sapiens, HCC1806, 4 h), at least 5000 nM.
`Cc1ccc(O)c(C)c1-c1c(N)c(C(N)=O)nc2c(F)cccc12` (single isomer, unassigned) [Compound 38, (M)-3-Amino-8-fluoro-4-(3-hydroxy-2,6-dimethylphenyl) quinoline-2-carboxamide]: the IC50 (at PKMYT1; in assay [1] (4 hours)) was 50 to 500 nM each time.
On to `Cc1c(O)cccc1-c1c(N)c(C(N)=O)nc2cc(C(F)(F)F)ccc12` [Compound 59, 3-Amino-4-(3-hydroxy-2-methylphenyl)-7-(trifluoromethyl) quinoline-2-carboxamide], for which the IC50 at PKMYT1 was at least 5000 nM; in assay [1] (4 hours), 1000 to 5000 nM.
On to `NC(=O)c1nc2cccnc2c(-c2cnn3c2CCCC3)c1N` [Compound 322], for which the concentration for half-maximal inhibition (IC50) is 1000 to 5000 nM at PKMYT1 and at least 5000 nM in assay [1] (Homo sapiens, HCC1806, 4 h).
The like results for `Cc1cc(O)cc(C)c1-c1cc(C(N)=O)nc2ccccc12` [Compound 130] were, in that order, at least 5000 nM and at least 5000 nM.
With `Cc1ccc(O)c(C)c1-c1cc(C(N)=O)cc2cccnc12` [Compound 60, 8-(3-Hydroxy-2,6-dimethyl-phenyl)quinoline-6-carboxamide], the half-inhibitory concentration (IC50) at PKMYT1 was 500 to 1000 nM; in assay [1] (Homo sapiens, HCC1806, 4 h) it was at least 5000 nM.
The like results for `CC1=C(c2c(N)c(C(N)=O)nc3cccnc23)CCC[C@@H]1O` [Compound 310] were, in that order, at least 5000 nM and at least 5000 nM.

Values taken from patent US20260176270A1 (Exelixis, Inc., priority 2022, published 2026).
